Laboratory results as given in patent publication US8535931B2, “Non-photosynthetic micro-organisms enriched with organic selenium from seleno-hydroxyacid compounds and applications thereof in the field of nutrition, cosmetics and pharmacueuticals” (priority 2008, dated 2013).
Read-outs that look alike come from different tables or passages of the source.

Tests used:
[1] = supplementation of the diet; cited from earlier work
[2] = tested on: Lactobacillus paracasei 3052-E000; assay type: cell-based; conditions: for inhibitor effect on the growth or reduction in the biomass production yield: up to 20 mg/L (in selenium equivalent); for reduction in the biomass production yield: 48 h
Protocol: In this experiment, the growth characteristics of the bacterium Lactobacillus paracasei were measured in the presence of different concentrations of selenium in the form of sodium selenite, selenomethionine, 2-hydroxy-4-methylseleno-butanoic acid and compared with the growth characteristics in the absence of additives.
The pre-culture of the strain Lactobacillus paracasei 3052-E000 is carried out in liquid MRS medium, at 42° C., without agitation for 24 h. The culture of the strain Lactobacillus paracasei 3052-E000 was carried out from an inoculum (1.10^7 UFC/ml) of the above pre-culture in 100 mL of MRS medium, at pH=6.4 and at a temperature of 42° C. (without agitation).
The cultures were monitored by absorbance measurements at 550 nm and CFU counting carried out on MRS plate.
The concentrations tested for the addition of selenium selenite are 0.5 mg/L, 2 mg/L, 10 mg/L and 20 mg/L in selenium equivalent, i.e. respectively 1.11 mg/L, 4.44 mg/L, 22.22 mg/L and 44.44 mg/L of sodium selenite. The graph of FIG. 4 makes it possible to visualise the growth of the strain Lactobacillus paracasei 3052-E000 in the presence of sodium selenite.
The concentrations tested for the addition of selenomethionine are 0.5 mg/L, 2 mg/L, 10 mg/L and 20 mg/L in selenium equivalent, i.e. respectively 1.25 mg/L, 5 mg/L, 25 mg/L and 50 mg/L of selenomethionine.
(§1) The concentrations tested for the addition of 2-hydroxy-4-methylseleno-butanoic acid are 0.5 mg/L, 2 mg/L, 10 mg/L and 20 mg/L in selenium equivalent, i.e. respectively 1.25 mg/L, 5 mg/L, 25 mg/L and 50 mg/L of 2-hydroxy-4-methylseleno-butanoic acid (THD-177, Tetrahedron, France, CAS: 873660-49-2).
In order to complete the study of the impact of the addition of 2-hydroxy-4-methylseleno-butanoic acid, at higher values, concentrations of 40 and 60 mg/L were tested under the same conditions as previously.

[3] = tested on: Saccharomyces cerevisiae 3053-E000; assay type: cell-based; conditions: for yield of biomass obtained (change): 48 h; for concentration from which an effect on growth / biomass yield begins to show: YPG medium, pH 4, 37° C.
Protocol: In the experiments described, the growth characteristics of the yeast Saccharomyces cerevisiae 3053 E000 were measured in the presence of different concentrations of selenium in the form of sodium selenite, selenomethionine, or 2-hydroxy-4-methylseleno-butanoic acid and compared to the growth characteristics in the absence of additives (control). The pre-culture of the strain Saccharomyces cerevisiae 3053-E000 is carried out in liquid YPG medium, at 37° C., under orbital agitation (250 rpm) for 24 h.
The culture is formed from an inoculum (1.10^6 UFC/ml) of the pre-culture described previously in 100 mL of YPG medium, at pH=4 at a temperature of 37° C. under agitation (250 rpm) and according to the following conditions:
The cultures of Saccharomyces cerevisiae 3053-E000 were monitored by absorbance measurements at 550 nm and by CPU counting on YPG gelose plates.
The concentrations tested for the addition of selenium selenite are 0.5 mg/L, 10 mg/L and 20 mg/L in selenium equivalent, i.e. respectively: 1.1 mg/L, 22.22 mg/L and 44.44 mg/L of sodium selenite.
The concentrations tested for the addition of selenomethionine are 0.5 mg/L, 2 mg/L, 10 mg/L and 20 mg/L in selenium equivalent, i.e. respectively 1.25 mg/L, 5 mg/L, 25 mg/L and 50 mg/L of selenomethionine
as §1

[4] = 10 mg/L (in selenium equivalent)
[5] = 20 mg/L (in selenium equivalent)
[6] = 10 and 20 mg/L (in selenium equivalent)

C[Se]CC[C@H](N)C(=O)O [L(+)-selenomethionine]
toxicity compared with an intake in the form of sodium selenite [1]: much less toxic

C[Se]CCC(O)C(=O)O (stereo not shown) [THD 177, 2-hydroxy-4-methylseleno-butanoic acid]
inhibitor effect on the growth and the biomass yield ([2]; 40 and 60 mg/L): no inhibitor effect was observed
inhibitor effect on the growth or reduction in the biomass production yield [2]: does not show an inhibitor effect
viability reduced by [3, 4]: 36%
yield of biomass obtained (change) [3, 4]: −15%
biomass yield reduced by [3, 5]: 36%
viability reduced by [3, 5]: 50%
concentration from which an effect on growth / biomass yield begins to show [3]: 10 mg/L (in selenium equivalent)

C[Se]CC[C@H](N)C(=O)O [selenomethionine]
inhibitor effect on the growth or reduction in the biomass production yield [2]: does not show an inhibitor effect
yield of biomass obtained (change) ([3]; 2 mg/L (in selenium equivalent)): −29%
yield of biomass obtained (change) [3, 4]: −50%
concentration from which an effect on growth / biomass yield begins to show [3]: 2 mg/L (in selenium equivalent)

O=[Se](O)O [sodium selenite]
reduction in the biomass production yield ([2]; 0.5 mg/L (in selenium equivalent)): 25%
toxicity on Lactobacillus paracasei [2, 6]: shows a toxicity
reduction in the biomass production yield [2, 6]: 90%
concentration from which an inhibitor effect on growth begins to show ([2]; MRS medium, pH 6.4, 42° C.): 0.5 mg/L (in selenium equivalent)
yield of biomass obtained (change) [3, 4]: −50%
toxicity for Saccharomyces cerevisiae [3, 5]: very toxic
concentration from which an effect on growth / biomass yield begins to show [3]: 10 mg/L (in selenium equivalent)
